Data published in ChEMBL document CHEMBL1132034, “6-oxa isosteres of anacardic acids as potent inhibitors of bacterial histidine protein kinase (HPK)-mediated two-component regulatory systems” (Bioorg Med Chem Lett, 1999).
Converted amounts (≈) assume the structure as drawn.

Key:
Type in all cases: functional
Staphylococcus aureus [1] = assay: In vitro antibacterial activity against methicillin resistant Staphylococcus aureus (MRSA) strain, OC2089
Enterococcus faecium = assay: In vitro antibacterial activity against E. faecium(VR) strain, OC3312 Van R
Bacillus subtilis = assay: Ability to inhibit autophosphorylation of KinA and/or Sp0F TCS proteins from Bacillus subtilis
Escherichia coli = assay: Ability to inhibit autophosphorylation of NR11 and/or transphosphorylation of NR1 TCS proteins from Escherichia coli
Staphylococcus aureus [2] = assay: In vitro antibacterial activity against Staphylococcus aureus strain, ATCC 29213
Enterococcus faecalis = assay: In vitro antibacterial activity against Enterococcus faecalis strain, OC3041

`CCCCCCCCCCCCCCCCCCCCOc1cccc(O)c1C(=O)O` gave an MIC (Staphylococcus aureus [1]) greater than 128 mg/L, an MIC (Enterococcus faecium) greater than 128 mg/L and an IC50 (Bacillus subtilis) greater than 500 µM. The IC50 (Escherichia coli) was greater than 500 µM and the MIC (Staphylococcus aureus [2]) was greater than 128 mg/L.

`CCCCCCCCCCCCCCOc1ccccc1C(=O)O` showed an IC50 (Bacillus subtilis) greater than 500 µM and an IC50 (Escherichia coli) of 89 µM.

Work on `CCCCCCCCCCCCCCOc1ccccc1C(=O)OC` yielded an IC50 (Bacillus subtilis) greater than 500 µM and an IC50 (Escherichia coli) greater than 500 µM.

Molecule `O=C(O)c1c(O)cccc1OCCCCCc1ccccc1` has an MIC (Enterococcus faecalis) of 128 mg/L (≈ 426 µM), an MIC (Staphylococcus aureus [1]) of 64 mg/L (≈ 213 µM) and an MIC (Enterococcus faecium) of 128 mg/L (≈ 426 µM). For the same molecule, the IC50 (Bacillus subtilis) was 380 µM, the IC50 (Escherichia coli) was greater than 500 µM and the MIC (Staphylococcus aureus [2]) was 64 mg/L (≈ 213 µM).

Molecule `CCCCCCCCCCCOc1cccc(O)c1C(=O)O` has an MIC (Enterococcus faecalis) of 16 mg/L (≈ 51.9 µM), an MIC (Staphylococcus aureus [1]) of 16 mg/L (≈ 51.9 µM) and an MIC (Enterococcus faecium) of 16 mg/L (≈ 51.9 µM). For the same molecule, the IC50 (Bacillus subtilis) was 25 µM, the IC50 (Escherichia coli) was 44 µM and the MIC (Staphylococcus aureus [2]) was 8 mg/L (≈ 25.9 µM).

`O=C(O)c1c(O)cccc1OCCC(c1ccccc1)(c1ccccc1)c1ccccc1` showed an MIC (Enterococcus faecalis) of 16 mg/L (≈ 37.7 µM), an MIC (Staphylococcus aureus [1]) of 8 mg/L (≈ 18.8 µM) and an MIC (Enterococcus faecium) of 16 mg/L (≈ 37.7 µM). The IC50 (Bacillus subtilis) was 85 µM, the IC50 (Escherichia coli) was 63 µM and the MIC (Staphylococcus aureus [2]) was 4 mg/L (≈ 9.42 µM).

Molecule `CCCCCCCCOc1cccc(O)c1C(=O)O` has an MIC (Enterococcus faecalis) of 128 mg/L (≈ 481 µM), an MIC (Staphylococcus aureus [1]) of 64 mg/L (≈ 240 µM) and an MIC (Enterococcus faecium) of 128 mg/L (≈ 481 µM). For the same molecule, the IC50 (Bacillus subtilis) was 190 µM, the IC50 (Escherichia coli) was greater than 500 µM and the MIC (Staphylococcus aureus [2]) was 64 mg/L (≈ 240 µM).

With `CCCCCCCCCCCCOc1cccc(O)c1C(=O)OC` the IC50 (Bacillus subtilis) was greater than 500 µM and the IC50 (Escherichia coli) was greater than 500 µM.

With `O=C(O)c1c(O)cccc1OCCCc1ccccc1` the MIC (Enterococcus faecalis) was greater than 128 mg/L, the MIC (Staphylococcus aureus [1]) was greater than 128 mg/L and the MIC (Enterococcus faecium) was greater than 128 mg/L. It also gave an IC50 (Bacillus subtilis) greater than 500 µM, an IC50 (Escherichia coli) greater than 500 µM and an MIC (Staphylococcus aureus [2]) greater than 128 mg/L.

`CCCCCCCCCCCCCCCc1cccc(O)c1` was tested, and the IC50 (Bacillus subtilis) was greater than 500 µM.

For `CCCCCCCCCCCCCCOc1cccc(O)c1C(=O)O`, the MIC (Enterococcus faecalis) was 4 mg/L (≈ 11.4 µM), the MIC (Staphylococcus aureus [1]) was greater than 32 mg/L and the MIC (Enterococcus faecium) was 4 mg/L (≈ 11.4 µM). It also gave an IC50 (Bacillus subtilis) of 2.2 µM, an IC50 (Escherichia coli) of 5 µM and an MIC (Staphylococcus aureus [2]) greater than 64 mg/L.

With `CCCCCCCCCCCCCCCCOc1cccc(O)c1C(=O)O` the MIC (Enterococcus faecalis) was 8 mg/L (≈ 21.1 µM), the MIC (Staphylococcus aureus [1]) was 128 mg/L (≈ 338 µM) and the MIC (Enterococcus faecium) was 8 mg/L (≈ 21.1 µM). The IC50 (Bacillus subtilis) was 3 µM, the IC50 (Escherichia coli) was 1.5 µM and the MIC (Staphylococcus aureus [2]) was greater than 128 mg/L.

`CC/C=C\CCCCCCCCCCOc1cccc(O)c1C(=O)O` was tested, and the MIC (Enterococcus faecalis) was 16 mg/L (≈ 45.9 µM), the MIC (Staphylococcus aureus [1]) was 32 mg/L (≈ 91.8 µM) and the MIC (Enterococcus faecium) was 16 mg/L (≈ 45.9 µM). It also gave an IC50 (Bacillus subtilis) of 8 µM, an IC50 (Escherichia coli) of 7.8 µM and an MIC (Staphylococcus aureus [2]) of 32 mg/L (≈ 91.8 µM).

With `CCCCCCCCCCCCOc1cccc(O)c1C(=O)O` the MIC (Enterococcus faecalis) was 8 mg/L (≈ 24.8 µM), the MIC (Staphylococcus aureus [1]) was 8 mg/L (≈ 24.8 µM) and the MIC (Enterococcus faecium) was 8 mg/L (≈ 24.8 µM). For the same molecule, the IC50 (Bacillus subtilis) was 4.4 µM, the IC50 (Escherichia coli) was 17 µM and the MIC (Staphylococcus aureus [2]) was 8 mg/L (≈ 24.8 µM).

`CCCCCCCCCCCCCCOc1cccc(O)c1C(=O)OC` gave an IC50 (Bacillus subtilis) greater than 500 µM and an IC50 (Escherichia coli) greater than 500 µM.

`CCCCCCCCCCCCCCCCCCOc1cccc(O)c1C(=O)O` showed an MIC (Staphylococcus aureus [1]) of 128 mg/L (≈ 315 µM), an MIC (Enterococcus faecium) of 128 mg/L (≈ 315 µM) and an IC50 (Bacillus subtilis) of 63 µM. The IC50 (Escherichia coli) was 130 µM and the MIC (Staphylococcus aureus [2]) was 128 mg/L (≈ 315 µM).

Work on `CCCCCCCCCCCCCCCc1cc(O)cc(O)c1` [CARDOL] yielded an IC50 (Bacillus subtilis) of 235 µM.
